Columns and labels:
barley = settings: cited from earlier work; for quantity sufficient to affect the growth by 50%: barley (monocotyledonous), aqueous solution containing 10% ethanol
dandelion [1] = test: Dandelion control, spreading applications (damage rating 0-5); assay type: in vivo, Taraxacum officinale; settings: 100 mL/m^2, after 50 days
Procedure: (§1) Control: eradication of weeds assessed, after a certain length of time, based on a visible damage rating of the foliage, varying from 0 to 5, and/or the mortality percentage observed on the treated plants.
(§2) The experiment was conducted using a randomized complete block design. Three repetitions were done for each treatment with surface areas of 0.5 m^2.
(§3) Treatment: 4Cl-IAA without co-ingredient with an application rate of 100 mL/m^2
(§4) Dependent variable: mean damage rating (from 0 to 5) of the dandelion and mean impact rating (from 0 to 3) on the turf assessed after 50 days

turf [2] = test: Selectivity: turf impact rating (0-3), targeted applications; assay type: in vivo; settings: doses below 0.1 g/plant; without co-ingredient; after 7 days; rating 0 to 3
Procedure: Selectivity of the effect: absence of a pronounced effect of the herbicide on the desirable plants assessed based on an impact rating on the latter, varying from 0 to 3 in the case of turf. [table] The experiment was conducted using a randomized complete block design. Five repetitions were done for each treatment. Treatment: 4Cl-IAA without co-ingredient Dependent variable: Impact rating (from 0 to 3) on the turf assessed after 7 days.

turf [3] = test: Selectivity: turf impact rating (0-3), spreading applications; assay type: in vivo; settings: for Turf impact rating: 100 mL/m^2, after 50 days
Procedure: Selectivity of the effect: absence of a pronounced effect of the herbicide on the desirable plants assessed based on an impact rating on the latter, varying from 0 to 3 in the case of turf.
as §2, §3, §4
The experiment was conducted using a completely randomized design with surface areas of 2 m^2 per treatment.
Dependent variable: impact rating (from 0 to 3) on the turf assessed after 4 and 90 days

[4] = Storage stability of finished product; assay type: physicochemical; settings: finished product incorporating the molecule; room temperature
[5] = system: dicotyledonous weed species; test: Weed species controlled with targeted applications (Example 10); assay type: in vivo; settings: 0.022 to 0.036 g/plant; after 21 to 40 days depending on the species; weed species of Table 4
Procedure: The experiments were conducted according to completely randomized design and randomized complete block design with targeted applications for weed control on various terrain covered in turf.
Treatment: 4Cl-IAA without co-ingredient with doses varying from 0.022 to 0.036 g/plant
Variables: Observation of a damage rating above 4 and a mortality percentage above 80%, assessed after a period of 21 to 40 days, depending on the species.

plantain = test: Plantain control, second targeted application; assay type: in vivo, Plantago sp.; settings: 0.015, 0.023 and 0.030 g/plant; without co-ingredient
Procedure: The experiment was conducted using randomized complete block design. Four repetitions were done for each treatment. Treatment: 4Cl-IAA without co-ingredient at three doses, i.e., 0.015, 0.023 and 0.030 g/plant Dependent variable: mean mortality percentage

[6] = Peroxide deterioration tests; assay type: physicochemical
dandelion [7] = test: Dandelion control, targeted applications on turfed terrain (damage rating 0-5, mortality %); assay type: in vivo, Taraxacum officinale; settings: for control efficacy (damage rating and mortality percentage): 0.014 to 0.036 g/plant
Procedure: as §1
The experiment was conducted using a randomized complete block design. Four repetitions were done for each treatment.
Dependent variable: mean damage rating (from 0 to 5) with the variation coefficient assessed after 42 days.
Dependent variable: Mean mortality percentage with the variation coefficient assessed after 42 days.
Treatment: solution of 4Cl-IAA applied at a dose of 0.03 g/plant containing 10% urea as co-ingredient
Dependent variable: mean damage rating (from 0 to 5)
The experiment was conducted using a randomized complete block design. Four repetitions were done for each treatment, except for 4Cl-IAA methyl ester, where three repetitions were done.
Treatment: the applied quantities varied from 0.014 to 0.036 g/plant, except for IAA, where the quantity was higher (0.2 g/plant) in light of the information found in the literature on the effect of the latter.
Dependent variable: mean damage rating (from 0 to 5) and mean mortality percentage assessed between 28 and 35 days after application

peas and mustard = settings: aqueous solution containing 10% ethanol; cited from earlier work
[8] = 28 to 35 days after application
[9] = 0.2 g/plant, 28 to 35 days after application

O=C(O)COc1ccc(Cl)cc1Cl [2,4-D, 2,4-dichlorophenoxyacetic acid, reference compound]
quantity sufficient to affect the growth by 50% (barley): 0.5 g/m^2

O=C(O)Cc1c[nH]c2cccc(Cl)c12 [4Cl-IAA, 4-chloroindole-3-acetic acid]
Dandelion damage rating (dandelion [1]; dose 0.3 g/m^2): 3.0
Dandelion damage rating (dandelion [1]; dose 0.6 g/m^2): 4.1
Dandelion damage rating (dandelion [1]; dose 1.0 g/m^2): 3.8
Dandelion damage rating (dandelion [1]; dose 1.2 g/m^2): 3.9
turf impact (turf [2]): zero to acceptable
impact rating on the turf (turf [3]; dose 0.25 g/m^2, after 4 days): 0
impact rating on the turf (turf [3]; dose 0.25 g/m^2, after 90 days): 0
Turf impact rating (turf [3]; dose 0.3 g/m^2): 0.7
Turf impact rating (turf [3]; dose 0.6 g/m^2): 1.7
impact rating on the turf (turf [3]; dose 0.6 g/m^2, after 4 days): 1
impact rating on the turf (turf [3]; dose 0.6 g/m^2, after 90 days): 0
impact rating on the turf (turf [3]; dose 0.9 g/m^2, after 4 days): 1
impact rating on the turf (turf [3]; dose 0.9 g/m^2, after 90 days): 0
Turf impact rating (turf [3]; dose 1.0 g/m^2): 1.7
impact rating on the turf (turf [3]; dose 1.0 g/m^2, after 4 days): 2
impact rating on the turf (turf [3]; dose 1.0 g/m^2, after 90 days): 0
Turf impact rating (turf [3]; dose 1.2 g/m^2): 2.0
impact rating on the turf (turf [3]; dose 1.2 g/m^2, after 4 days): 3
impact rating on the turf (turf [3]; dose 1.2 g/m^2, after 90 days): 0
stability in storage [4]: stability over two years
damage rating [5]: above 4
mortality percentage [5]: above 80%
control efficacy (mean mortality percentage), effect of a second application (plantain): pronounced improvement in the control efficacy
stability in peroxide deterioration tests [6]: a certain stability
control efficacy (damage rating and mortality percentage) (dandelion [7]; [8]): control efficacies close to those observed with a 2,4-D-based herbicide
damage rating (dandelion [7]; after 3 days, solution containing 0.45% of 4Cl-IAA, rating 0 to 5): only a small effect
damage rating for dandelion control (dandelion [7]; after 35 days, solution containing 0.45% of 4Cl-IAA, rating 0 to 5): 5
damage rating on dandelions (dandelion [7]; dose 0.0075 g per plant, without vs with chelating agent (HEDTA or EDDS), rating 0 to 5): 3.1
decrease of the mortality percentage (dandelion [7]; doses below 0.01 g/plant, without co-ingredient, after 42 days): about 50%
quantity sufficient to affect the growth by 50% (barley): 0.17 g/m^2
sensitivity of the monocotyledonous plant compared with 2,4-D (barley; barley): three times higher
impact on the growth of dicotyledonous plants compared to 2,4-D (peas and mustard): about 4 times lower

O=C(O)Cc1c[nH]c2ccccc12 [IAA, indole-3-acetic acid]
mean damage rating (dandelion [7]; [9]): interesting damage rating
mean mortality percentage (dandelion [7]; [9]): low mortality percentage

COC(=O)Cc1c[nH]c2cccc(Cl)c12 [methyl ester of 4Cl-IAA]
control efficacy (damage rating and mortality percentage) (dandelion [7]; [8]): control efficacies close to those observed with a 2,4-D-based herbicide
